Measured values taken from ChEMBL document CHEMBL5352508, “Discovery and Structure-Based Design of Inhibitors of the WD Repeat-Containing Protein 5 (WDR5)-MYC Interaction” (J Med Chem, 2023).

Biological target: WDR5-MYC (Homo sapiens, UniProt P61964)
Experiment: Inhibition of N-terminal his-tagged WDR5 (1 to 334 residues) (unknown origin)/Biotin tagged Myc (256-268 residues) (unknown origin) interaction measured after 1 hrs by HTRF assay
Format: protein assay

Q: For Cc1cc(=O)c(C(=O)NCc2c(F)cc(N3CC[C@H](F)C3)cc2F)nn1-c1ccccc1, which IC50 is on record?
A: 1.2 µM

Q: For Cc1cc(=O)c(C(=O)NCc2c(F)cc(C3=CC(=O)CCC3)cc2F)nn1-c1ccccc1, which IC50 is on record?
A: 1.58 µM

Q: With Cc1cc(=O)c(C(=O)NCc2c(F)cc(C3CCCOC3)cc2F)nn1-c1ccccc1 (stereo not given) as the compound, how does the IC50 read?
A: 3.83 µM

Q: Which IC50 does the source give for Cc1cc(=O)c(C(=O)NCc2c(F)cc(N3CC[C@@H](O)C3)cc2F)nn1-c1ccccc1 here?
A: 3.72 µM

Q: Cc1cc(=O)c(C(=O)NCc2c(F)cc(N3CC[C@@H](F)C3)cc2F)nn1-c1cccc(CC(N)=O)c1 was tested. Which IC50 did it give?
A: 3.15 µM

Q: With Cc1cc(=O)c(C(=O)NCc2c(F)cc(N3CC[C@H](O)C3)cc2F)nn1-c1ccccc1 as the compound, how does the IC50 read?
A: 5.67 µM

Q: How did the IC50 turn out when Cc1cc(=O)c(C(=O)NCc2c(F)cc(-c3ccccc3)cc2F)nn1-c1cccnc1 was run?
A: 25.4 µM

Q: For Cc1cc(=O)c(C(=O)NCc2c(F)cc(-c3ccccc3)cc2F)nn1-c1ccccc1, which IC50 is on record?
A: 15.8 µM

Q: For Cc1cc(=O)c(O)c(C(=O)NCc2ccc(-c3ccccc3C#N)cc2)o1, which IC50 is on record?
A: 13.9 µM

Q: With Cc1cc(=O)c(C(=O)NCc2c(F)cc(N3CCOCC3)cc2F)nn1-c1ccccc1 as the compound, how does the IC50 read?
A: 3.24 µM

Q: For Cc1cc(=O)c(C(=O)NCc2c(F)cc(N3CCCC(F)(F)C3)cc2F)nn1-c1ccccc1, which IC50 is on record?
A: 0.82 µM

Q: Cc1cc(=O)c(C(=O)NCc2c(F)cc(N3CC[C@@H](F)C3)cc2F)nn1-c1ccccc1 was tested. Which IC50 did it give?
A: 0.78 µM

Q: For Cc1cc(=O)c(C(=O)NCc2c(F)cc(-c3cccnc3)cc2F)nn1-c1ccccc1, which IC50 is on record?
A: 4.45 µM

Q: Cc1cc(=O)c(C(=O)NCc2c(F)cc(N3CC[C@H](F)C3)cc2F)nn1-c1cccc(C(N)=O)c1 was tested. Which IC50 did it give?
A: 0.95 µM

Q: Which IC50 does the source give for Cc1cc(=O)c(C(=O)NCc2c(F)cc(-c3cncnc3)cc2F)nn1-c1ccccc1 here?
A: 13.8 µM
